In patent publication US5981544A, “Mono-- or diketone tetracyclic derivatives and therapeutical uses thereof” (Laboratoire Innothera, priority 1995, dated 1999):
Several values for one entry are separate records, joined by “and”; a condition that tells them apart may be missing. Equal values may be shown once.

What was measured:
[1] = test system: capillary resistance in rats; assay: Effects on capillary resistance (petechial index, negative pressure) after oral administration in rats; assay type: in vivo, rat (male Wistar); conditions: rat
Description: (§1) As for the in vivo studies, they are administered intravenously or intraperitoneally in the form of an aqueous solution with or without DMSO, or orally in a 1% carboxymethylcellulose suspension, administered with the use of a force-feed probe at a volume of 10 mL/kg.
Effects on capillary resistance:
The increase in capillary resistance is detected by the change in the petechial index (negative pressure inducing the extravasation of erythrocytes), measured by a method derived from Parrot's angiosterrometer.
The study is carried out on male Wistar rats weighing an average of 200 g (aged approximately 6 weeks). The lower back area is shaved, then depilated with the use of a paste based on a by-product of thioglycolic acid and calcium hydroxide. After approximately 30 min, the skin is rinsed abundantly and dried.
On the day of the study, the rats are kept nonconstrained. A low pressure of 80 mm of mercury is applied.
The minimum low pressure at which the petechiae appear expressed in mm of mercury, the value of the base capillary resistance (before any treatment). Two measurements are carried out for each trial on different places on the back. The rats are treated orally. After a predetermined amount of time (generally 2, 4, or 6 h) after the treatment, the test is renewed on different areas of skin, until petechiae appear, yielding a new low pressure index. All measurements are carried out in the blind mode.
The variation between the means of the base capillary resistance and post-treatment capillary resistance is calculated for the experimental animals, for each treatment time and compared to the control group (excipient only) or the reference group.
By way of example, the oral administration of certain compounds of the invention and their derived salts increases the capillary resistance in rats at doses generally between 0.01 and 5 mg/kg: […]

[2] = test system: inflammatory hyperpermeability induced by zymosan in rats; assay: Effects on capillary hyperpermeability induced by zymosan in rats (Evans Blue albumin extravasation); assay type: in vivo, rat (Wistar); conditions: rat, oral
Description: as §1
Effects on induced capillary hyperpermeability
Vascular permeability is studied in vivo by measuring albumin extravasation, the quantity of which is determined by a coloring agent bonded to the albumin (Evans Blue). Hyperpermeability is induced by the intradermal injection of a histamine, bradykinin, or zymosan solution.
The technique is derived from that described by Beach and Steinetz, Journal of Pharmacology and Experimental Therapy, 131: 400-406, 1961.
The rats (Wistars, 200 to 230 g) are shaved on the abdominal wall 1 h before the start of the experiment. The product to be tested is injected i.p. or orally 1-4 h prior to sacrificing. The rats are anesthetized using a halothane mixture. They then receive an intradermal injection in the abdomen of 0.10 to 0.15 mL of an inflammatory agent (by histamine 6.7 or 10 μg) and an i.v. injection of 1 mL of Evans blue 0.5% solution in the vein of the penis. These injections are carried out 30 min prior to sacrificing.
30 min after these two injections, the rats are sacrificed by cervical dislocation.
At the locus of injection of the inflammatory agent, the skin is cut off and placed in ground-neck glass tubes containing 3 mL of fuming hydrochloric acid. Digestion of the skin is carried out by contact [with HCl] of at least 1 h in a double boiler at 37° C.; 3 mL of benzalkonium chloride at 12.8% are then added. After leaving undisturbed for 30 min, 7 mL of dichloromethane are added. The tubes are periodically agitated for 1 h. The aqueous phase is eliminated by aspiration and the organic dichloromethane phase is filtered. The optical densities are quantified by absorption spectrophotometry at a 620 nm wavelength, against a blank [control] containing only dichloromethane.
The averages for optical density of the different lots of experimental and control animals are calculated, then the variation between the data for the experimental animals and those for the control animals is calculated.
By way of illustration, the oral administration of certain compounds of the invention and their derived salts reduce inflammatory hyperpermeability induced by zymosan in rats in doses generally between 0.01 and 5 mg/kg: […]

[3] = test system: saphenous vein of rabbits; assay: Contractile effect on rabbit saphenous vein rings precontracted by depolarizing physiological solution (40 mM potassium); design: species or system rabbit (New Zealand); conditions: Oryctolagus cuniculus, precontracted at 40 mM potassium; for Emax: % of maximum contraction induced by depolarizing hyperpotassic solution, read-out: Emax (% of maximum contr.); for EC50: read-out: ED50 (the source's name)
Description: For the in vitro studies, the compounds are made soluble in a pure aqueous solution or a solution containing DMSO (dimethyl sulfoxide).
Contractile effects are measured, in vitro and under static conditions, on capacitance or resistance vascular rings of the saphenous, femoral, jugular, mesenteric, and caval veins; and on the femoral, carotid, basilar, mesenteric, and thoracic or abdominal aortic arteries, in rats (Wistar, 200 to 250 g), rabbits (New Zealand, 2 to 2.5 kg), and guinea pigs (Dunkin Hartley, 250 to 300 g).
The rings are placed in an isolated organ chamber (25 mL for capacitance vessels and 2.5 mL for resistance vessels, as per Mulvany), kept in isometric conditions by two stiff cables inserted into the interior of the vessel, avoiding any damage to the endothelium. The vessels are washed in a modified Krebbs solution (in mM: NaCl=118; KCl=4.6; ClCl2 =2.5; MgSO4 =1.2; KH2 PO4 =1.17; NcHCO3 =25; glucose=11), permanently aerated by a gaseous mixture at 95% O2 and 5% CO2, at pH=7.4 and set thermostatically at 37° C. The rings are taken to their optimal point of the tension-length ratio.
The tensions developed generate an electrical signal through a strength sensor (Wheatstone bridge). […] The pharmacological studies are carried out after some preliminary contractile stimulations standardized by a depolarizing solution (hyperpotassic solution obtained by replacing NaCl by KCl in equimolar quantities), rinses, and balancing periods in pure physiological solution. Presence of the endothelium is verified by the relaxation induced by increasing concentrations of acetylcholine after stabilization of a vascular precontraction.
The contraction forces developed by the vascular rings in response to the different compounds are studied on quiescent or electrically stimulated (5-8 Hz) vessels, using a hyperpotassic depolarizing physiological solution (KCl: 20, 40 mM), using noradrenaline (increasing concentrations), or using serotonin (increasing concentrations).
The contractions are expressed in mg of force or as a percentage of maximum contraction at depolarization by a hyperpotassic physiological solution.
The compounds of the invention and their derived salts selectively increase, in the majority of cases, the contraction of animal veins produced by noradrenaline, by electrical stimulation, or by a depolarizing hyperpotassic solution. By way of example, there is the contractile effect of different compounds on the saphenous vein of rabbits, precontracted by a depolarizing physiological solution with a potassium concentration equal to 40 mM; the maximum effect produced by each compound is expressed as the percentage of maximum contraction induced by the depolarizing hyperpotassic solutions and in ED50 values: […]

[4] = test system: mice; assay: Acute oral toxicity in mice; assay type: in vivo; conditions: single oral administration, 1 g/kg
Description: Furthermore, the compounds of the invention and their derived salts have a very low toxicity.

Structure (SMILES)	EC50 [3] [nM]	Effect at 4 hours (capillary resistance) ([1]; 0.1 mg/kg)	Effect at 6 hours (capillary resistance) ([1]; 0.1 mg/kg)	Effect at 2 hours (hyperpermeability induced by zymosan) ([2]; 0.1 mg/kg)	Effect at 4 hours (hyperpermeability induced by zymosan) ([2]; 0.1 mg/kg)	Emax [3] [%]	Effect at 4 hours (capillary resistance) ([1]; 5 mg/kg)	Effect at 6 hours (capillary resistance) ([1]; 5 mg/kg)	mortality [4]	toxic effect [4]	Effect at 2 hours (hyperpermeability induced by zymosan) ([2]; 5 mg/kg)	Effect at 4 hours (hyperpermeability induced by zymosan) ([2]; 5 mg/kg)
O=C1c2ncccc2C(=O)c2c1nc1ccccn21 [Example h, 6,11-Dihydro-6,11-dioxo-pyrido[1',2':1,2]-imidazo[5,4-g]quinoline]	67	19 % of control	13 % of control	-23 % of control	-5 % of control	18 ± 3						
O=C1C(=O)c2c(nc3ccc(Cl)cn23)-c2ccccc21 [Example c, 9-Chloro-5,6-dihydro-5,6-dioxo-naphtho[1',2':4,5]-imidazo[1,2-a]pyridine]	157		29 % of control and 17 % of control	-14 % of control	-11 % of control	27 ± 4	17 % of control	10 % of control	no mortality was observable	no toxic effect was observable		
Cc1ccn2c3c(nc2c1)-c1ccccc1C(=O)C3=O [Example 2, 5,6-Dihydro-5,6-dioxo-10-methyl-naphtho[1',2':4,5]-imidazo[1,2-a] pyridine]	271			-10 % of control	-15 % of control	28 ± 4	11 % of control	13 % of control	no mortality was observable	no toxic effect was observable		
O=C1C(=O)c2c(nc3cc(Cl)ccn23)-c2ccccc21 [Example 12, 10-Chloro-5,6-dihydro-5,6-dioxo-naphtho[1',2':4,5]-imidazo[1,2-a] pyridine]	58					13 ± 3						
O=C1C(=O)c2c(nc3ccccn23)-c2ccccc21 [Example a, 5,6-Dihydro-5,6-dioxo-naphtho[1',2':4,5]imidazo[1,2-a] pyridine]	306					32 ± 7			no mortality was observable	no toxic effect was observable	-1 % of control	-28 % of control

The next lines start with results.

EC50 [3] [nM]	Structure (SMILES)	Effect at 4 hours (capillary resistance) ([1]; 0.1 mg/kg)	Effect at 6 hours (capillary resistance) ([1]; 0.1 mg/kg)	Effect at 2 hours (hyperpermeability induced by zymosan) ([2]; 0.1 mg/kg)	Effect at 4 hours (hyperpermeability induced by zymosan) ([2]; 0.1 mg/kg)	Emax [3] [%]	Effect at 4 hours (capillary resistance) ([1]; 5 mg/kg)	Effect at 6 hours (capillary resistance) ([1]; 5 mg/kg)	mortality [4]	toxic effect [4]	Effect at 2 hours (hyperpermeability induced by zymosan) ([2]; 5 mg/kg)	Effect at 4 hours (hyperpermeability induced by zymosan) ([2]; 5 mg/kg)
200	Cc1cccn2c3c(nc12)-c1ccccc1C(=O)C3=O [Example 3, 5,6-Dihydro-5,6-dioxo-11-methyl-naphtho[1',2':4,5]-imidazo[1,2-a] pyridine]					18 ± 4					-13 % of control	-12 % of control
170	Cc1ccc2nc3c(n2c1)C(=O)C(=O)c1ccccc1-3 [Example 1, 5,6-Dihydro-5,6-dioxo-9-methyl-naphtho[1',2':4,5]-imidazo[1,2-a]pyridine]					20 ± 4						
450	O=C1C(=O)c2c(nc3ncccn23)-c2ccccc21 [Example f]					56 ± 7						
